{
  "source": "patent US20250295618A1",
  "about": "“PARASYMPATHETIC NERVE ACTIVATION AGENT AND PARASYMPATHETIC NERVE ACTIVATION COMPOSITION” (MARUZEN PHARMACEUTICALS CO., LTD., priority 2022, published 2025)",
  "format_in_all_cases": "in vivo, male Whistar rats",
  "key": {"[1]": {"tested_on": "parasympathetic nerve (vagus nerve) innervating the pancreas", "test": "Test Example 1: neural activity of distal branches of vagus (parasympathetic) nerve for the pancreas (PVNA) after intragastric administration", "conditions": "urethane-anesthetized rats, measured for 60 minutes, percentage of value at 0 minutes (100%), FIG. 2", "experimental": "(§1) The effect of the intragastric administration of the compound represented by Structural Formula (1) on the activity of the parasympathetic nerve innervating the stomach, the pancreas, or the intestine was tested in the following manner. For the experiment, male Whistar rats (approximately 9 weeks old) each having a body weight of approximately 300 g were kept in a 24° C. thermostatic animal room for 1 week or longer with a 12-hour light-dark cycle (lighting from 8:00 to 20:00). On the day of the experiment, the rats were fasted for 3 hours, followed by anesthetizing with urethane. A cannula for intragastric administration was inserted into each of the rats, and then distal branches of the parasympathetic nerve (vagus nerve) innervating the stomach, the pancreas, or the intestines (small intestine and large intestine) were lifted with a silver electrode, and the electrical activity thereof was measured. […] In addition, as a control, water serving as a solvent was intragastrically administered using the cannula at a dose of 0.5 mL/300 g of body weight, and the change in the neural activity of the distal branches of the above parasympathetic nerves was measured electrophysiologically for 60 minutes. […]"}, "[2]": {"tested_on": "parasympathetic nerve (vagus nerve) innervating the stomach", "test": "Test Example 1: neural activity of distal branches of vagus (parasympathetic) nerve for the stomach (GVNA) after intragastric administration", "conditions": "urethane-anesthetized rats; intragastric 0.015 mg/0.5 mL/300 g of body weight; measured for 60 minutes; percentage of value at 0 minutes (100%); FIG. 1", "experimental": "as §1"}, "[3]": {"tested_on": "parasympathetic nerve (vagus nerve) innervating the intestines (small intestine and large intestine)", "test": "Test Example 1: neural activity of distal branches of vagus (parasympathetic) nerve for the intestine (IVNA) after intragastric administration", "conditions": "urethane-anesthetized rats, measured for 60 minutes, percentage of value at 0 minutes (100%), FIG. 3", "experimental": "as §1"}, "[4]": {"conditions": "intragastric 0.00015 mg/0.5 mL/300 g of body weight"}, "[5]": {"conditions": "intragastric 0.0015 mg/0.5 mL/300 g of body weight"}},
  "data": [
    {"smiles": "COc1cc(CCC(=O)O)ccc1O", "note": "[3-(4-hydroxy-3-methoxyphenyl)propionic acid]", "values": [
      {"measurement": "pancreatic vagal nerve activity (PVNA) value compared with the water group", "setting": "[1]; [4]", "value": "PVNA value higher than the PVNA value of the group to which water serving as the solvent was administered"},
      {"measurement": "pancreatic vagal nerve activity (PVNA) value compared with the water group", "setting": "[1]; [5]", "value": "PVNA value higher than the PVNA value of the group to which water serving as the solvent was administered"},
      {"measurement": "gastric vagal nerve activity (GVNA) value compared with the water group", "setting": "[2]", "value": "GVNA value higher than the GVNA value of the group to which water serving as the solvent was administered"},
      {"measurement": "intestinal vagal nerve activity (IVNA) value compared with the water group", "setting": "[3]; [4]", "value": "IVNA values higher than the IVNA value of the group to which water serving as the solvent was administered"},
      {"measurement": "intestinal vagal nerve activity (IVNA) value compared with the water group", "setting": "[3]; [5]", "value": "IVNA values higher than the IVNA value of the group to which water serving as the solvent was administered"}
    ]}
  ]
}
